Reference: patent US8962244B2, “Compounds for modulating RNA binding proteins and uses therefor” (University of Massachusetts, priority 2009, dated 2015)
Several values for one entry are separate records, joined by “and”; a condition that tells them apart may be missing. Equal values may be shown once.

Experiments:
MEX-5 [1] = target: T1, MEX-5 (Caenorhabditis elegans, UniProt Q9XUB2); experiment: Fluorescence polarization screening of MEX-5 binding to fluorescein-labeled TCR2 RNA; conditions: for remaining activity at 192 µM: 192 μM test compound, score = polarization relative to no-drug and no-protein controls, 0.25 = 75% inhibition, lowest score = greatest inhibition, read-out: MEX-5 score; for IC50: further screening as described above (fluorescence polarization), dose response
T1 construct: The fragment of mex-5 containing the TZF domain (amino acids 236-350) was amplified; made in house; host or cells: Escherichia coli JM109
T1 sequence (Q9XUB2 236-350): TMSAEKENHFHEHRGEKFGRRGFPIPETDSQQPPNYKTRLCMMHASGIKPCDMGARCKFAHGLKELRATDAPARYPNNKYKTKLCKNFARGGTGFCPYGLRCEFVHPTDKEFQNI
Outline: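 Fluorescence polarization of 2 nM 3′-fluorescein-labelled TCR2 RNA bound by 120 nM MBP-MEX-5 TZF domain (aa 236–350), at sub-saturating binding. Test compounds at 192 μM in 50 mM Tris-HCl pH 8.0, 100 mM NaCl, 0.01% IGEPAL, 0.01 mg/mL yeast tRNA, 100 μM Zn(OAc)2; no-protein and no-compound controls.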

MEX-5 [2] = target: T1, MEX-5; experiment: Dose response gel shift assay, MEX-5 with TCR2 RNA; format: binding; conditions: 120 nM MEX-5, 2-3 nM fluorescein labeled TCR2 RNA
Procedure: (§1) A further dose response assay was performed on select compounds of the invention as described below. A sub-saturating concentration of MEX-5 or POS-1 (120 nM) was equilibrated with limiting fluorescein labeled RNA (2-3 nM, TCR2 RNA or MEX-3 UTR fragment RNA respectively) in the presence of varying concentrations of compound. Following equilibration, the reactions were loaded onto a 5% slab polyacrylamide gel and subjected to electrophoresis for about 1 hour to separate protein-RNA complex from free RNA. The gel was scanned on a FUJI FLA-5000 imager, and the fraction of bound RNA determined by dividing the intensity of the bound RNA by the intensity of the bound RNA plus the free RNA. The […] was plotted as a function of compound concentration and fit to a sigmoidal dose response function in order to determine the IC50, the concentration that gives half maximal inhibition.

POS-1 [3] = target: T2, POS-1 (Caenorhabditis elegans, UniProt G5EF15); experiment: Dose response gel shift assay, POS-1 with MEX-3 UTR fragment RNA; format: binding; conditions: 120 nM POS-1, 2-3 nM fluorescein labeled MEX-3 UTR fragment RNA
T2 construct: 6-his tag (N); made in house; host or cells: E. coli BL21 (DE3) Gold
T2 sequence (G5EF15 80-180): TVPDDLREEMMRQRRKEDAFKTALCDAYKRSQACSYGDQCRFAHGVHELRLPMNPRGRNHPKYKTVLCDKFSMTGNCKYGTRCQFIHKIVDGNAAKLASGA
Procedure: as §1

POS-1 [4] = target: T2, POS-1; experiment: Fluorescence polarization screening of POS-1 binding to fluorescein-labeled BMF018 RNA; conditions: for remaining activity at 192 µM: 192 μM test compound, score = polarization relative to no-drug and no-protein controls, 0.25 = 75% inhibition, lowest score = greatest inhibition, read-out: POS-1 score; for IC50: further screening as described above (fluorescence polarization), dose response
[5] = system: Caenorhabditis elegans N2 strain worms; experiment: C. elegans viability/sterility assay (gonad microinjection); format: in vivo
Procedure: Young adult worms with a single row of embryos were selected for microinjection. Each worm was mounted on a dried agarose padded coverslip in halocarbon oil. Varying concentrations of compound, or a DMSO control, were microinjected into each gonad arm of the worm using an inverted microscope with DIC optics. Injected worms were then allowed to recover for 2-3 hours at 15° C. Approximately 10-40 worms were injected per compound tested. Individual worms that survived microinjection were singled out onto new NGM agar plates and allowed to recover overnight at 15° C. The plates were moved to room temperature the next morning. At the end of the day, the adult worm was transferred to a new plate. The embryos laid on each plate were monitored for hatching and inspected for unusual phenotypes. Nematode fertility was estimated by counting the total number of progeny on both plates. Viability was estimated by monitoring the extent of hatching.

[6] = count per individual injected worm (Worm No. 1-6), Day 2

Compound	remaining activity at 192 µM (MEX-5 [1])	IC50 (MEX-5 [1])	IC50 (MEX-5 [2])	IC50 (POS-1 [3])	remaining activity at 192 µM (POS-1 [4])	IC50 (POS-1 [4])	Day 1 Hatchlings ([5]; count per individual injected worm (Worm No. 1-6), Day 1)	Day 2 Embryos [5, 6]	Day 2 Hatchlings [5, 6]	Day 1 Embryos ([5]; count per individual injected worm (Worm No. 1-6), unhatched embryos on plate, Day 1)	Effect on worm fertility ([5]; microinjection into each gonad arm, compared with DMSO controls)
CCS(=O)(=O)Nc1ccccc1NS(=O)(=O)CC [BR]	19.9%	39 µM	78 µM	150 µM	–	820 µM	–	–	–	–	–
Sc1nnc(COc2cccc3ccccc23)n1-c1ccccc1 [BO]	19%	75 µM	120 µM	33 µM	–	16 µM	–	–	–	–	–
CC(=O)Oc1ccccc1-c1nc2s/c(=C3\C(=O)N(CC(N)=O)c4ccccc43)c(=O)n2n1 [C]	-2.09%	33 µM	9.5 µM	5.1 µM	-2.48%	7 µM	–	–	–	–	–

Continued, in another order:

remaining activity at 192 µM (MEX-5 [1])	IC50 (MEX-5 [1])	IC50 (MEX-5 [2])	IC50 (POS-1 [3])	remaining activity at 192 µM (POS-1 [4])	IC50 (POS-1 [4])	Compound	Day 1 Hatchlings ([5]; count per individual injected worm (Worm No. 1-6), Day 1)	Day 2 Embryos [5, 6]	Day 2 Hatchlings [5, 6]	Day 1 Embryos ([5]; count per individual injected worm (Worm No. 1-6), unhatched embryos on plate, Day 1)	Effect on worm fertility ([5]; microinjection into each gonad arm, compared with DMSO controls)
-1.07%	1.5 µM	2 µM	0.17 µM	-1.62%	0.32 µM	COc1ccc(S(=O)(=O)Nc2ccccc2NS(=O)(=O)c2ccc(OC)cc2)cc1 [E]	11 and 34 and 2 and 6 and 4 and 67	0	0	1 and 0 (4×) and 2	may sterilize worms at a stage prior to fertilization
–	–	–	260 µM	7.5%	300 µM	COc1nnc(-c2ccc(C)c(S(=O)(=O)NCC3CCCO3)c2)c2ccccc12 (stereo not drawn) [DD]	–	–	–	–	–
